According to ChEMBL document CHEMBL5465560, “Selectivity Literature for EUbOPEN Chemogenomic Library” (2024):

What was measured:
[1] = target: T1, Sphingosine kinase 2 (Homo sapiens) (UniProt Q9NRA0); assay: Selectivity interaction (Kinase panel (literature)) EUB0001199aCl SPHK2; conditions: at 1 µM
T1 sequence (whole entry): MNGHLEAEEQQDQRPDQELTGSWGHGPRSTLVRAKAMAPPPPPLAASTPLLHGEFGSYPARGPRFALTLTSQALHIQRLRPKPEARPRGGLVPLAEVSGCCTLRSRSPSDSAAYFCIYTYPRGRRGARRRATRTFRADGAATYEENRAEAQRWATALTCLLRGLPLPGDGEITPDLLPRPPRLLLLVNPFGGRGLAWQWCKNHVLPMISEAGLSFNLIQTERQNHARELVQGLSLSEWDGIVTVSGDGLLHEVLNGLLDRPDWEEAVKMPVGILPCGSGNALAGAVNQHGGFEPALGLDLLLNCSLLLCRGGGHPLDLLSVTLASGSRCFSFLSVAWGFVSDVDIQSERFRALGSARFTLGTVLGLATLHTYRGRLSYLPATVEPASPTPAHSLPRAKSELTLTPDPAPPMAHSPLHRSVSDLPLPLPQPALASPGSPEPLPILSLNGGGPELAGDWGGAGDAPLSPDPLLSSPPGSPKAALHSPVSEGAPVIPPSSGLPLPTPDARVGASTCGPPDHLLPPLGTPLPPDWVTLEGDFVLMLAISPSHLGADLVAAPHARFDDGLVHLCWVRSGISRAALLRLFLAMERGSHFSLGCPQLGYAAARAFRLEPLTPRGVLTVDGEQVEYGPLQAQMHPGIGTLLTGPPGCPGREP

[2] = target: Serine/threonine-protein kinase 33 (Homo sapiens) (UniProt Q9BYT3); assay: Selectivity interaction (KinomeScan (DiscoverX)) EUB0000666a STK33; conditions: at 10 µM
Chain of Serine/threonine-protein kinase 33 (Homo sapiens) (Q9BYT3 whole entry, looked up): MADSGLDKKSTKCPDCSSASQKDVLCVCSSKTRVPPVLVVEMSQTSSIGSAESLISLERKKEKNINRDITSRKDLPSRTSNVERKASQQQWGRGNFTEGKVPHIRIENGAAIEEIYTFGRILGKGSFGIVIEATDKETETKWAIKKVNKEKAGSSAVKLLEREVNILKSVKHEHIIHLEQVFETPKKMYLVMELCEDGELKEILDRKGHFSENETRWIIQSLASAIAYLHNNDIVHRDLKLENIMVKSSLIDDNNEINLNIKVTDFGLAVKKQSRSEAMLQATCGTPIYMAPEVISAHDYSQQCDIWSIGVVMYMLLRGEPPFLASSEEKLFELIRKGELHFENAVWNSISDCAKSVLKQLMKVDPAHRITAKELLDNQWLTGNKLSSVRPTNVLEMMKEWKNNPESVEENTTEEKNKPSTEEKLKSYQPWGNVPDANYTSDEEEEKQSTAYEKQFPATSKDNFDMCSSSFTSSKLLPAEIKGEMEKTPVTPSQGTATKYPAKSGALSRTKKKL

[3] = target: Tyrosine-protein kinase Blk (Homo sapiens) (UniProt P51451); assay: Selectivity interaction (KinomeScan (DiscoverX)) EUB0000666a BLK; conditions: at 10 µM
Chain of Tyrosine-protein kinase Blk (Homo sapiens) (P51451 2-505 limits assumed): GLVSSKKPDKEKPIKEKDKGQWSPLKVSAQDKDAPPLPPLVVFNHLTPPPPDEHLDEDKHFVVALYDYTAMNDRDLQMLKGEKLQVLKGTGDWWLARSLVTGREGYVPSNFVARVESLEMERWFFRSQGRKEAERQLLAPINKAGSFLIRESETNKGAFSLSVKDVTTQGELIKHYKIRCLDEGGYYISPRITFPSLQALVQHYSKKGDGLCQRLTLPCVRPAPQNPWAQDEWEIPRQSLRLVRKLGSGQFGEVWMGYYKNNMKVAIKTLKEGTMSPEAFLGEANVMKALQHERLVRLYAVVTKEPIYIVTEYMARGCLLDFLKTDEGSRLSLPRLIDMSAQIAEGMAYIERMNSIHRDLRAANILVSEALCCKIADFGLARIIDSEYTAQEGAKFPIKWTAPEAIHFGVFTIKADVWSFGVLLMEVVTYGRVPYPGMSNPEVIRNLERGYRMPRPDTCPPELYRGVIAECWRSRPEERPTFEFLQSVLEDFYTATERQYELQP

[4] = target: T2, Serine/threonine-protein kinase TNNI3K (Homo sapiens) (UniProt Q59H18); assay: Selectivity interaction (Ambit KINOMEscan and KiNATiv profiling in Jurkat cells) EUB0000090b TNNI3K; format: cell-based; conditions: at 1 µM
T2 sequence (whole entry): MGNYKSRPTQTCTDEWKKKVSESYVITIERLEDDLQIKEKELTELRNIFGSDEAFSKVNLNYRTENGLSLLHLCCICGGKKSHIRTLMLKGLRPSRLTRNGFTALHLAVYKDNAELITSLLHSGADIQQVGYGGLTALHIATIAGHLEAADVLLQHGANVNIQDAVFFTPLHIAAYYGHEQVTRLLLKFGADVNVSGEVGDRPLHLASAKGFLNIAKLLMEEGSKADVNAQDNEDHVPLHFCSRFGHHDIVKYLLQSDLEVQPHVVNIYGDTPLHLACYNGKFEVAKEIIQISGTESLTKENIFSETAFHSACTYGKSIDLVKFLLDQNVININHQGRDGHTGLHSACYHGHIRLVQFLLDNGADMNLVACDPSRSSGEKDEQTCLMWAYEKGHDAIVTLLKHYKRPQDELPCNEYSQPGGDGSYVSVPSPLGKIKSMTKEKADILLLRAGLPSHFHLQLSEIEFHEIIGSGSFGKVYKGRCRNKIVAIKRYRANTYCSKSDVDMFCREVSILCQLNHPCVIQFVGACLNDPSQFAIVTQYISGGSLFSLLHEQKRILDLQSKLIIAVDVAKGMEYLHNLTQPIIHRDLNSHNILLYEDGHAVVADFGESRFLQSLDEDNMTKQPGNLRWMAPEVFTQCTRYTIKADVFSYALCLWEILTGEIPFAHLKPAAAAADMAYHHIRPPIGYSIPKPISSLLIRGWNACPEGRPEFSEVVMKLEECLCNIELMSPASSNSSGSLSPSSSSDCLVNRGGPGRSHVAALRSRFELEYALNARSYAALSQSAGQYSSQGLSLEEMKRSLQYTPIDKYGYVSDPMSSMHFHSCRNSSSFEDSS

[5] = target: Ribosomal protein S6 kinase alpha-5 (Homo sapiens) (UniProt O75582); assay: Selectivity interaction (Ambit KINOMEscan and KiNATiv profiling in Jurkat cells) EUB0000090b RPS6KA5; format: cell-based; conditions: at 1 µM
Chain of Ribosomal protein S6 kinase alpha-5 (Homo sapiens) (O75582 whole entry, looked up): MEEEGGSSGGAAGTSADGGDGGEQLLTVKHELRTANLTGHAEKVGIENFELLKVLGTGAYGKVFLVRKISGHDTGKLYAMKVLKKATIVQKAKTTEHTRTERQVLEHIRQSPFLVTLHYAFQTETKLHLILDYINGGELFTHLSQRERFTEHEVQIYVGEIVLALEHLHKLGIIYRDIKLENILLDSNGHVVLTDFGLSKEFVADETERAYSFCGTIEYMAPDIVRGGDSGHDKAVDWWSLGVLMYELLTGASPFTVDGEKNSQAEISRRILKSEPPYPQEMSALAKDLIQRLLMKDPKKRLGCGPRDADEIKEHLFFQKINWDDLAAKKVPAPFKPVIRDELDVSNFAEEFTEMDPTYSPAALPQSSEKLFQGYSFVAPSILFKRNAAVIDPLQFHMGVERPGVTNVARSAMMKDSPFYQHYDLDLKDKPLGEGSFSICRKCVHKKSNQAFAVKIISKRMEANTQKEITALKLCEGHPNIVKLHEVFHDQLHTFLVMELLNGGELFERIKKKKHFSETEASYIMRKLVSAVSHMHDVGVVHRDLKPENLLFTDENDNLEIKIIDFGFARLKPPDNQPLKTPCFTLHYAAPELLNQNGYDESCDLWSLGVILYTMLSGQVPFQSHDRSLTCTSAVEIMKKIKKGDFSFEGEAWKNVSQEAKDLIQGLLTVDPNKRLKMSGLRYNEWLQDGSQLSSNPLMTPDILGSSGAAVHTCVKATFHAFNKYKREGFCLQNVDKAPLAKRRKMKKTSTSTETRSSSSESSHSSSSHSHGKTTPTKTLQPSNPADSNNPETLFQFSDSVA

[6] = target: Mitogen-activated protein kinase 11 (Homo sapiens) (UniProt Q15759); assay: Selectivity interaction (KinomeScan (DiscoverX)) EUB0000618a MAPK11; conditions: at 10 µM
Chain of Mitogen-activated protein kinase 11 (Homo sapiens) (Q15759 whole entry): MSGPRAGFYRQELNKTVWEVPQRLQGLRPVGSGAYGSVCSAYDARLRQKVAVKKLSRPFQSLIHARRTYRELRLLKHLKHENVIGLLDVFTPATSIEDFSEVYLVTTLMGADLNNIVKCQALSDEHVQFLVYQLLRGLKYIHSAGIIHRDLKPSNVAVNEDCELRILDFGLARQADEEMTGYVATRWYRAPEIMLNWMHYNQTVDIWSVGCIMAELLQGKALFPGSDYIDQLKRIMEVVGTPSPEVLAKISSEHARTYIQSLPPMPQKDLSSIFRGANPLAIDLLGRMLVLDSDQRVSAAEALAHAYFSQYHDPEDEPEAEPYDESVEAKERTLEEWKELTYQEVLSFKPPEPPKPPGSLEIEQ

[7] = system: Mast/stem cell growth factor receptor Kit (Homo sapiens), P10721 [L576P]; assay: Selectivity interaction (KinomeScan (DiscoverX)) EUB0001619a KIT; conditions: at 1 µM
Chain of Mast/stem cell growth factor receptor Kit (Homo sapiens), P10721 [L576P] (P10721 whole entry L576P): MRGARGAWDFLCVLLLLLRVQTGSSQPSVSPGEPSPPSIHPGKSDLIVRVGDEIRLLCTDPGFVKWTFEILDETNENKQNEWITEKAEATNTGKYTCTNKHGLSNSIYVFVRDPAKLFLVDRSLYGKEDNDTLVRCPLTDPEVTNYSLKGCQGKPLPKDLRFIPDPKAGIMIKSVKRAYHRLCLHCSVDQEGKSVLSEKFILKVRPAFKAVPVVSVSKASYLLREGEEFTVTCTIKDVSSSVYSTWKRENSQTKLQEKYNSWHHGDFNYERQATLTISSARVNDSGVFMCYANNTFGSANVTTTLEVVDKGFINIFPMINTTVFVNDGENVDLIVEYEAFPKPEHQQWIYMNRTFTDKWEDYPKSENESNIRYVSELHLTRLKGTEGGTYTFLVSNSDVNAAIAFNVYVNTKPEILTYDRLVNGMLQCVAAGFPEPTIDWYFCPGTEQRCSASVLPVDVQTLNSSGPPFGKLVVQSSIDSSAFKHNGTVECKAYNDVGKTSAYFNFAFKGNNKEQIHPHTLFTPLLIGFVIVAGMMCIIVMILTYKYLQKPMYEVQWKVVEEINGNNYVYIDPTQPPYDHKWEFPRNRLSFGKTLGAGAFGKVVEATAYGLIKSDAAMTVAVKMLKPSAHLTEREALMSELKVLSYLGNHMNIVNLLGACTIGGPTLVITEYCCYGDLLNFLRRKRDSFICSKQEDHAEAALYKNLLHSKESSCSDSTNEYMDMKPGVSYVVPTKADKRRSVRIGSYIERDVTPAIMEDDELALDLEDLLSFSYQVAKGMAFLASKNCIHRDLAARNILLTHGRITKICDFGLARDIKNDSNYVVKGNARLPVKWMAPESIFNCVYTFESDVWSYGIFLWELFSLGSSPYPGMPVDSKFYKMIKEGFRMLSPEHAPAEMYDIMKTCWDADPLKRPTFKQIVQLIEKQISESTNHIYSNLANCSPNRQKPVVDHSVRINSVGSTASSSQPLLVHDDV

[8] = target: Serine/threonine-protein kinase 38 (Homo sapiens) (UniProt Q15208); assay: Selectivity interaction (KinomeScan (DiscoverX)) EUB0001619a STK38; conditions: at 1 µM
Chain of Serine/threonine-protein kinase 38 (Homo sapiens) (Q15208 2-465 limits assumed): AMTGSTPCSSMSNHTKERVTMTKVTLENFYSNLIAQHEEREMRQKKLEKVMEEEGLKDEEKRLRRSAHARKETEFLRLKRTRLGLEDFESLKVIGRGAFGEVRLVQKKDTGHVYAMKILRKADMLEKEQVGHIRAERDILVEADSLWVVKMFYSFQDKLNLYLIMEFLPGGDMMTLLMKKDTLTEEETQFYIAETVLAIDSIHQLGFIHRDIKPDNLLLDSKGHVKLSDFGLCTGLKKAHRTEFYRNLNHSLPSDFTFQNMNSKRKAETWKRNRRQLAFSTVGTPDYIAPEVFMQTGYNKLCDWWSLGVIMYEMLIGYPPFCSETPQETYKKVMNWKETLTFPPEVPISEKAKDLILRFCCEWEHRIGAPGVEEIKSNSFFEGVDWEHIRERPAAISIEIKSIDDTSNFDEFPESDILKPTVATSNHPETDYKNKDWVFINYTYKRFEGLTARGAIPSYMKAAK

[9] = target: T3, cAMP-dependent protein kinase catalytic subunit PRKX (Homo sapiens) (UniProt P51817); assay: Selectivity interaction (SelectScreen profiling (Invitrogen)) EUB0000607a PRKX; conditions: at 2 µM
T3 sequence (whole entry): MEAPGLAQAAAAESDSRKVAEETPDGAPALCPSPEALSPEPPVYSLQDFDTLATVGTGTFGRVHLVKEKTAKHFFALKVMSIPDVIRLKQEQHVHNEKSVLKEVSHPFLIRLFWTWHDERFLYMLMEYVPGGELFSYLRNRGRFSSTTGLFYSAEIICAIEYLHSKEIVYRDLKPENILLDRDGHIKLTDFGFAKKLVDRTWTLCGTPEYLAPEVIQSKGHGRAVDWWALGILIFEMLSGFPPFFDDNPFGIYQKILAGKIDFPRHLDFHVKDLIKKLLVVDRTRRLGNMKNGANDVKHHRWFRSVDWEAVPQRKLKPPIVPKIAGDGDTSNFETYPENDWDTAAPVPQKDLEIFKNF

[10] = target: Protein kinase C beta type (Homo sapiens, UniProt P05771); assay: Selectivity interaction (ProQinase) EUB0000171b PRKCB; conditions: at 1 µM
Chain of Protein kinase C beta type (P05771 2-671 limits assumed): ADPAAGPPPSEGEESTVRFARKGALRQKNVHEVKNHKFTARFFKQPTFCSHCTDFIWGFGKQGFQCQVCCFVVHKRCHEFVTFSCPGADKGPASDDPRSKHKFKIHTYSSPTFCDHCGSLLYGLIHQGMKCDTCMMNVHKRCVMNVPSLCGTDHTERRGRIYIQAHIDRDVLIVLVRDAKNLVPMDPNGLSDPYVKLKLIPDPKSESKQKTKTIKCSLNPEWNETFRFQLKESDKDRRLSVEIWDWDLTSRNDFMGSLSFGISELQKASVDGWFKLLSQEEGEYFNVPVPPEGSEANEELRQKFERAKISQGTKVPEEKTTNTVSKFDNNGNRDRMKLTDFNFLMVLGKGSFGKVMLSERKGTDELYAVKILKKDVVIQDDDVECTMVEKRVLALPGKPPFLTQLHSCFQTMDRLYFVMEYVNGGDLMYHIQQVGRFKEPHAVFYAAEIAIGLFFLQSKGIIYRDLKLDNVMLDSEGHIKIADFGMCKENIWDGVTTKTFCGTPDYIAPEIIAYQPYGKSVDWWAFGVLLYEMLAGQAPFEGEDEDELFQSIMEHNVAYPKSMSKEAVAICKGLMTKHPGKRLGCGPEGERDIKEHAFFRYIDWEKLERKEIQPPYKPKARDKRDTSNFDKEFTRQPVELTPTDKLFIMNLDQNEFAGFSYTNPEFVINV

[11] = target: Mitogen-activated protein kinase 3 (Homo sapiens, UniProt P27361); assay: Selectivity interaction (ProQinase) EUB0000171b MAPK3
Chain of Mitogen-activated protein kinase 3 (P27361 whole entry): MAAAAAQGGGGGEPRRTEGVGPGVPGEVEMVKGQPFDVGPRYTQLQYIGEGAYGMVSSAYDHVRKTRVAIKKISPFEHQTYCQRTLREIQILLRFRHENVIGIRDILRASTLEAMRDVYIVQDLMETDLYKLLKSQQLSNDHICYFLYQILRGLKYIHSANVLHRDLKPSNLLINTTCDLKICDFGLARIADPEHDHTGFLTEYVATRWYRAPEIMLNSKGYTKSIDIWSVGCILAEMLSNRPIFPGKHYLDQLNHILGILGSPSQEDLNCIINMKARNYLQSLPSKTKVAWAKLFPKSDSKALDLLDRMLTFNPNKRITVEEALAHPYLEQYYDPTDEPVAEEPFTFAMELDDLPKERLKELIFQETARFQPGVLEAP

Compound: CN1Cc2nccc(-c3cn(C)nc3-c3ccc(F)cc3)c2C1=O
- % of inhibition [1]: -7%

Compound: O=C(NOC[C@H](O)CO)c1ccc(F)c(F)c1Nc1ccc(I)cc1F
- % of control [2]: 79%
- % of control [3]: 83%

Compound: CN(C)C/C=C/C(=O)Nc1ccc(C(=O)N2CCCC(Nc3ncc(Cl)c(-c4c[nH]c5ccccc45)n3)C2)cc1 (configuration not stated)
- % of control [4]: 86%
- % of control [5]: 86%

Compound: O[C@H]1CC[C@H](Nc2ncc3nc(Nc4c(F)cc(F)cc4F)n([C@H]4CCOC4)c3n2)CC1
- % of control [6]: 24%

Compound: N#Cc1cccc(-c2c[nH]c3ncnc(N4CCOCC4)c23)c1
- % of control [7]: 89%
- % of control [8]: 89%

Compound: CNC(=O)Nc1ccc(-c2nc(N3CC4CCC(C3)O4)c3cnn(C4CCC5(CC4)OCCO5)c3n2)cc1
- % of inhibition [9]: 5%

Compound: C=CC(=O)Nc1cccc(C(=O)Nc2ccc(Nc3cc(-c4[nH]c(SC)nc4C)ccn3)cc2)c1
- % of control [10]: 103%
- % of control ([11]; at 1 µM): 101%
- % of control ([11]; at 5 µM): 99%
